The values below come from patent publication US6235742A, “5-substituted pyrazolo[4,3-D]pyrimidin-7-ones” (Pfizer Inc., priority 1997, dated 2001).

Entries after “also recorded” stand apart in the source; their conditions may differ. Where two headings read alike, the source gives them in different places.

Common to all, as to format: biochemical
Assay [1] concerns PDE1 (calcium/calmodulin (Ca/CAM)-dependent PDE). In words: PDE1 inhibition, rat kidney. An excerpt:
(§1) In vitro PDE inhibitory activities against cyclic guanosine 3', 5'-monophosphate (cGMP) and cyclic adenosine 3', 5'-monophosphate (cAMP) phosphodiesterases can be determined by measurement of their IC50 inhibition of enzyme activity.
(§2) The required PDE enzymes are isolated from a variety of sources, including rat kidney, human corpus cavernosum, human platelets, rabbit platelets, human cardiac ventricle, human skeletal muscle and bovine retina, essentially by the method of W J Thompson and M M Appleman (Biochem, 1971, 10, 311).
(§3) For example, for some of the studies the calcium/calmodulin (Ca/CAM)-dependent PDE (PDE1) is obtained from either human cardiac ventricle or rat kidney. The cGMP-stimulated PDE (PDE2), the cGMP-specificPDE (PDE5) and the cGMP-inhibited cAMP PDE (PDE3) are obtained from human corpus cavernosum tissue. PDE5 is also obtained from human platelets or rabbit platelets by techniques usual in the art. The cAMP-specific PDE (PDE4) is obtained from rat kidney. The photoreceptor PDE (PDE6) is obtained from bovine retina.
(§4) Assays are performed using a modification of the "batch" method of W J Thompson et al (Biochem, 1979, 18, 5228).

The target in assay [2] is T1, PDE5 (Oryctolagus cuniculus, UniProt G1SX67).
T1 construct: PDE5 is also obtained from human platelets or rabbit platelets; from tissue; host or cells: rabbit platelets
In words: PDE5 inhibition, rabbit platelet.
Source text: as §1, §2, §3, §4

The test system of assay [3] is Ca/CAM-dependent PDE1. In words: PDE1 inhibition stated in words (source not given). The following applies: for potency and selectivity as PDE1 inhibitor: summary in words.
Source text: as §1, §2, §3, §4

Assay [4] has as its target T2, PDE5 (Homo sapiens, UniProt O76074).
T2 construct: PDE5 is also obtained from human platelets or rabbit platelets; from tissue; host or cells: human platelets
In words: PDE5 inhibition, human platelet. The following applies: comparative study.
Source text: as §1, §2, §3, §4

For assay [5], the target named is T3, PDE2 (cGMP-stimulated PDE) (Homo sapiens, UniProt O00408).
T3 construct: are obtained from human corpus cavernosum tissue; from tissue; host or cells: human corpus cavernosum
T3 sequence (O00408 whole entry): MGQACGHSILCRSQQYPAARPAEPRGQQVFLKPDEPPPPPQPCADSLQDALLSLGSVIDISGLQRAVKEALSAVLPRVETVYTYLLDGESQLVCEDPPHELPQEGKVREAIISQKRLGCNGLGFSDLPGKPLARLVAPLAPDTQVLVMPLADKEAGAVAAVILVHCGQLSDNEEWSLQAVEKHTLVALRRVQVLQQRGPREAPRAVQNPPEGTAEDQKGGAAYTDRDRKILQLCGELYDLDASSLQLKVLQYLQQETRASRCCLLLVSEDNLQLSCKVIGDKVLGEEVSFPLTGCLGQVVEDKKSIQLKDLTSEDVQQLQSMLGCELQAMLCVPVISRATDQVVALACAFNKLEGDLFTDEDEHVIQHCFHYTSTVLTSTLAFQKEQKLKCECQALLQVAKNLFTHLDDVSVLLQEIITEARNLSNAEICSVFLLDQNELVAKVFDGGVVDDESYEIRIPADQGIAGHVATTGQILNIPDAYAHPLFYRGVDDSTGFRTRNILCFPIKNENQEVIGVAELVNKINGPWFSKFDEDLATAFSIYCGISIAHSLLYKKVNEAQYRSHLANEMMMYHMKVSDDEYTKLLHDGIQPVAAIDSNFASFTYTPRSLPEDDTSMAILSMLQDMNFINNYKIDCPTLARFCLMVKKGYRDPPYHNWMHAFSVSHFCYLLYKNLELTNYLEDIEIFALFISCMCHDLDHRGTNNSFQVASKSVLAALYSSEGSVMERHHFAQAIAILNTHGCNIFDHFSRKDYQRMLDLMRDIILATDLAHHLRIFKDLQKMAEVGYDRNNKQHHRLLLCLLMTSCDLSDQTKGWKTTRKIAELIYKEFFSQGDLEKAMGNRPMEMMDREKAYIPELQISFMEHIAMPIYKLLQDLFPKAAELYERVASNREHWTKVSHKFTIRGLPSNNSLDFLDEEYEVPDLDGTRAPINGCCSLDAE
As to the kind of experiment: PDE inhibition, PDE type 2 from human corpus cavernosum. The conditions noted are these: PDE type 2, human corpus cavernosum.
Source text: as §1, §2, §3, §4

For assay [6], the target named is T4, PDE6 (photoreceptor PDE) (Bos taurus, UniProt P11541+P23439).
T4 construct: The photoreceptor PDE (PDE6) is obtained from bovine retina; from tissue; host or cells: bovine retina
T4 sequence (P11541 2-856 limits assumed): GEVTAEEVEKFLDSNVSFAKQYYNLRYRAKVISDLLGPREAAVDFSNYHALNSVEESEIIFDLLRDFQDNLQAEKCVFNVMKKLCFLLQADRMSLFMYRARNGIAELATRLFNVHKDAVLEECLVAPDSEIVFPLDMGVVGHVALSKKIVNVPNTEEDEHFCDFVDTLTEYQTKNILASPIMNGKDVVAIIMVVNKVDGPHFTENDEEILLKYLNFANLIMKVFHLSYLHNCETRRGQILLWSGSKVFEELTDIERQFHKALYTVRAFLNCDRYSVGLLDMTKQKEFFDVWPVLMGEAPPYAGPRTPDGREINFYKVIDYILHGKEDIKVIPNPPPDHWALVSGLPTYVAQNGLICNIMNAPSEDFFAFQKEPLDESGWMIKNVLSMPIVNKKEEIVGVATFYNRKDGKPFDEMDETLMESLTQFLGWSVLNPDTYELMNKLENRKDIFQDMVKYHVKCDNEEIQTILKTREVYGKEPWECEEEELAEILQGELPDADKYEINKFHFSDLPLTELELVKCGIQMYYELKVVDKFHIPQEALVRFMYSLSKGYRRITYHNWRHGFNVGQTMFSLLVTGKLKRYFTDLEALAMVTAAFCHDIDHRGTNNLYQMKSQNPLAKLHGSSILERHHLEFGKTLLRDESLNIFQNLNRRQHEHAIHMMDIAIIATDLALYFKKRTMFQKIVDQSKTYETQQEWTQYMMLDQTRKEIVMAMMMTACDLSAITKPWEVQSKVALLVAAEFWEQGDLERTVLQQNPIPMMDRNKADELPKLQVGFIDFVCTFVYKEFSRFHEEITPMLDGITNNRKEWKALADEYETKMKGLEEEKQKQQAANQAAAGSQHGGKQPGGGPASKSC
T4 sequence (P23439 2-850 limits assumed): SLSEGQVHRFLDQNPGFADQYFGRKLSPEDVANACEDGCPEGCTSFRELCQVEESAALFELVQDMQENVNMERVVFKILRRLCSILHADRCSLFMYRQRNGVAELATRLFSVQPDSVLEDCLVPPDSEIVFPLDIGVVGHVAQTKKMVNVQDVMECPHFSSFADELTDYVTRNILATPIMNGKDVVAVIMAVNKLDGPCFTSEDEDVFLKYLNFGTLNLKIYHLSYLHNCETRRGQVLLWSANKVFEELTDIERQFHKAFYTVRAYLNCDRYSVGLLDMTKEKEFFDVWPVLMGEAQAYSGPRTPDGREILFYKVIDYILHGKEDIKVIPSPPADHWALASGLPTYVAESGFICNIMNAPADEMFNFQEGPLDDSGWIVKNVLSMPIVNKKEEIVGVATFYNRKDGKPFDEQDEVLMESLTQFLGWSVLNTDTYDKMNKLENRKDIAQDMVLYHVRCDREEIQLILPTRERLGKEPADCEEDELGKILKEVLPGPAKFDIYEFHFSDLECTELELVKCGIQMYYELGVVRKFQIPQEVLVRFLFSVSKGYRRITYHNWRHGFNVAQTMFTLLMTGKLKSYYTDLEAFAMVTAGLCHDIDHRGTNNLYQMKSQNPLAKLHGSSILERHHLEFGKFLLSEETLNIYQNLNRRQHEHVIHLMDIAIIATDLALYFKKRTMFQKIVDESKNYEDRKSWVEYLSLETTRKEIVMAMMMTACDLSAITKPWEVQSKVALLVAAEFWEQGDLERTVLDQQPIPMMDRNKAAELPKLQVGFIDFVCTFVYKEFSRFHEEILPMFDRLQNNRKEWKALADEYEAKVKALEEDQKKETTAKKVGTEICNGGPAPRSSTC
As to the kind of experiment: PDE inhibition, PDE type 6 from bovine retina. The conditions noted are these: PDE type 6, bovine retina.
Source text: as §1, §2, §3, §4

Assay [7] concerns the target T5, PDE5 (cGMP-specific PDE) (Homo sapiens, UniProt O76074).
T5 construct: are obtained from human corpus cavernosum tissue; from tissue; host or cells: human corpus cavernosum
As to the kind of experiment: PDE inhibition, PDE type 5 from human corpus cavernosum. The following applies: PDE type 5, human corpus cavernosum.
Source text: as §1, §2, §3, §4

In assay [8] the test system is PDE3 (cGMP-inhibited cAMP PDE). In words: PDE inhibition, PDE type 3 from human corpus cavernosum. The following applies: PDE type 3, human corpus cavernosum.
Source text: as §1, §2, §3, §4

Assay [9] concerns the target T6, PDE1 (calcium/calmodulin (Ca/CAM)-dependent PDE) (Homo sapiens, UniProt Q14123).
T6 construct: obtained from either human cardiac ventricle or rat kidney; from tissue; host or cells: human cardiac ventricle
As to the kind of experiment: PDE inhibition, PDE type 1 from human cardiac ventricle. The following applies: PDE type 1, human cardiac ventricle.
Source text: as §1, §2, §3, §4

For assay [10], the system named is PDE4 (cAMP-specific PDE). As to the kind of experiment: PDE inhibition, PDE type 4 from rat kidney. The conditions noted are these: PDE type 4, rat kidney.
Source text: as §1, §2, §3, §4

The mark [11] stands for this setting: further studies, IC50 per protocol, read-out: RAT KIDNEY PDE1.
Setting [12] is: further studies, IC50 per protocol, read-out: RABBIT PLATELET PDE5.
Where [13] appears, read: rat kidney, comparative study, cGMP, read-out: cGMP / PDE1 INHIBITION - IC50 Values.
The mark [14] stands for this setting: rabbit platelet, comparative study, read-out: PDE5 INHIBITION - IC50 Values.

T6 sequence (Q14123 1-634 isoform Q14123-2): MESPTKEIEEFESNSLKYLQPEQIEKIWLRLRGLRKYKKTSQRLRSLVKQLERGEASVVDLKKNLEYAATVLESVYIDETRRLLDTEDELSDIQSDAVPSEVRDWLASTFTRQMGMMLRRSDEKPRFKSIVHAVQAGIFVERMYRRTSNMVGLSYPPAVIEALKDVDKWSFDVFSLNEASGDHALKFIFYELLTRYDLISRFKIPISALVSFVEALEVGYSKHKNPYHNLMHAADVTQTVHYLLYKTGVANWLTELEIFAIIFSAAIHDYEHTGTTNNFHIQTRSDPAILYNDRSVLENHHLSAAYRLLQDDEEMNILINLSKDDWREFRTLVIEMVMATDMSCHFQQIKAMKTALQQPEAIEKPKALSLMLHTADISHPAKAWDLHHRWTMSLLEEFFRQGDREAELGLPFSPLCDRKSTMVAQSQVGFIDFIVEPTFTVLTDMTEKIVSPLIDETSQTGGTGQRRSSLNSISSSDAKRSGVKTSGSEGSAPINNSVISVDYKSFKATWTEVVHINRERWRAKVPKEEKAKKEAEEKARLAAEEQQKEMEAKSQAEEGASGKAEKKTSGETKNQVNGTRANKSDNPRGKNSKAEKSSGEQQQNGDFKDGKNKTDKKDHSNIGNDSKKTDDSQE

Turning to `CCCc1nn(C)c2c(=O)[nH]c(Cc3ccccc3NS(C)(=O)=O)nc12` [Example 36], the IC50 came to 59 nM in [1] (setting [11]) and 1800 nM in assay [2] (setting [12]). For the same compound, in [3], the “potency and selectivity as PDE1 inhibitor” value is “potent and selective PDE1 inhibitors”.
`Cc1nn(C)c2c(=O)[nH]c(Cc3ccc(N(C)C)cc3)nc12` ['188 compound, reference compound]: the figures for the IC50 in [4], in [1] (setting [13]) and in assay [2] (setting [14]) were 3200 nM, 9900 nM and 2800 nM, respectively. Further, the PDE1 inhibition entry in [3] (statement in words) is “not as effective at such low concentrations; also recorded: at least a weak PDE1 inhibitor”.
`CCCc1nn(C)c2c(=O)[nH]c(Cc3ccc(NS(=O)(=O)c4ccccc4)cc3)nc12` [Example 37]: the values for the IC50 in [1] (setting [11]) and in assay [2] (setting [12]) were 94 nM and 6400 nM, respectively. Further, the “potency and selectivity as PDE1 inhibitor” value in [3] is “potent and selective PDE1 inhibitors”.
`CCCc1nn(C)c2c(=O)[nH]c(Cc3ccc(N(CC)CC)cc3)nc12` [Example 50, 5-[4-(diethylamino)benzyl]-1-methyl-3-propyl-6,7-dihydro-1H-pyrazolo[4,3-d]pyrimidin-7-one]: the IC50 in assay [5] turned out to be 1990 nM; in [6], 2030 nM; in [7] it was 2490 nM; in assay [8], 3940 nM; in [9], 38 nM; in [4] it was 2700 nM. Besides, the IC50 stood at 37 nM in assay [1] (setting [13]), 23000 nM in [10] and 6700 nM in assay [2] (setting [14]). The “potency and selectivity as PDE1 inhibitor” value in assay [3] was “potent and selective PDE1 inhibitors”.
